Source: patent US9346809B2 (LEO PHARMA A/S, priority 2009, dated 2016)
Read-outs that look alike come from different tables or passages of the source.

Experiments:
Format in all cases: biochemical
[1] = biological target: T1, TYK2 (aa 871-1187, catalytic domain, GST-tag) (Homo sapiens, UniProt P29597); test: JAK kinase assay (HTRF, phosphorylation of TK substrate-biotin), TYK2; conditions: ATP at Km (13 μM)
T1 construct: JAK1 (aa 850-1154) and TYK2 (aa 871-1187) are expressed with an N-terminally fused GST-tag; GST (N); purchased Carna Biosciences, Inc; host or cells: baculovirus expression system
T1 sequence (P29597 871-1187): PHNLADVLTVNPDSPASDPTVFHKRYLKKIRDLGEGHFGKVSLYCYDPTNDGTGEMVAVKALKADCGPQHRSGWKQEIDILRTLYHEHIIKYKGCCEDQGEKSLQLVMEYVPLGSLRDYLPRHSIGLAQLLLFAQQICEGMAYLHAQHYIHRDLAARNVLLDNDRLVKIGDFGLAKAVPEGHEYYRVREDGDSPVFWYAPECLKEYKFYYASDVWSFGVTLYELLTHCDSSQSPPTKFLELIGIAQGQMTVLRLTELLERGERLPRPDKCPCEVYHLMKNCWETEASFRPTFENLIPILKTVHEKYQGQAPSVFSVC
In short: (§1)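 EC50 values come from HTRF detection of phospho-biotin-TK peptide (1 μM) after 20-30 min RT reactions in Hepes pH 7.0 buffer with 0.75% DMSO. ATP was at Km for each enzyme: 7 μM JAK1, 4 μM JAK2, 2 μM JAK3, 13 μM TYK2. SEB (50 nM) was added for JAK1 and TYK2 only.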

[2] = biological target: T2, JAK3 (catalytic domain, His-tag) (Homo sapiens, UniProt P52333); test: JAK kinase assay (HTRF, phosphorylation of TK substrate-biotin), JAK3; conditions: ATP at Km (2 μM)
T2 construct: All four purified enzymes contain only the catalytic domain; His (N); purchased Carna Biosciences, Inc; host or cells: baculovirus expression system
In short: as §1

[3] = biological target: T3, JAK2 (catalytic domain, His-tag) (Homo sapiens, UniProt O60674); test: JAK kinase assay (HTRF, phosphorylation of TK substrate-biotin), JAK2; conditions: ATP at Km (4 μM)
T3 construct: All four purified enzymes contain only the catalytic domain; His (N); purchased Carna Biosciences, Inc; host or cells: baculovirus expression system
In short: as §1

[4] = biological target: T4, JAK1 (aa 850-1154, catalytic domain, GST-tag) (Homo sapiens, UniProt P23458); test: JAK kinase assay (HTRF, phosphorylation of TK substrate-biotin), JAK1; conditions: ATP at Km (7 μM)
T4 construct: JAK1 (aa 850-1154) and TYK2 (aa 871-1187) are expressed with an N-terminally fused GST-tag; GST (N); purchased Carna Biosciences, Inc; host or cells: baculovirus expression system
In short: as §1

[5] = HTRF assay, read-out: TYK2 kinase inhibitory activity (EC50 indicator)
[6] = HTRF assay, read-out: JAK3 kinase inhibitory activity (EC50 indicator)
[7] = HTRF assay, read-out: JAK2 kinase inhibitory activity (EC50 indicator)
[8] = HTRF assay, read-out: JAK1 kinase inhibitory activity (EC50 indicator)
[9] = read-out: TYK2 kinase inhibitory activity (EC50 indicator)
[10] = read-out: JAK3 kinase inhibitory activity (EC50 indicator)
[11] = read-out: JAK2 kinase inhibitory activity (EC50 indicator)
[12] = read-out: JAK1 kinase inhibitory activity (EC50 indicator)

T4 sequence (P23458 850-1154): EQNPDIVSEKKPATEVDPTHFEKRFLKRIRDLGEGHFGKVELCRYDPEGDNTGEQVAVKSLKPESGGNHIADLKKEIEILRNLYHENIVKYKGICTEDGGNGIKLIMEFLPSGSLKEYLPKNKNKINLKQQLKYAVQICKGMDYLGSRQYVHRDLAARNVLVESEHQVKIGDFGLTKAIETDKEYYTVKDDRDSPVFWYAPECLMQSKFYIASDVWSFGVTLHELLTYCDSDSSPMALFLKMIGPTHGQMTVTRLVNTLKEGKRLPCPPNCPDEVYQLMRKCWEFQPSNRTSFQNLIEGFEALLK
T2 sequence (P52333 822-1111 limits assumed): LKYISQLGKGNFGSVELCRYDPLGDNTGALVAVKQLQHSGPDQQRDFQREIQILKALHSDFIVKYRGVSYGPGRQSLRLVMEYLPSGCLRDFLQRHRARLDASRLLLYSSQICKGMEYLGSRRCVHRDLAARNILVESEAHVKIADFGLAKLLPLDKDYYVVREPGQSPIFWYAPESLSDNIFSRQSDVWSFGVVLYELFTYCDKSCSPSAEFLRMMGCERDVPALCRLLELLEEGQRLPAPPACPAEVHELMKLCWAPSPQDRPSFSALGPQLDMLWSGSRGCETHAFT
T3 sequence (O60674 849-1124 limits assumed): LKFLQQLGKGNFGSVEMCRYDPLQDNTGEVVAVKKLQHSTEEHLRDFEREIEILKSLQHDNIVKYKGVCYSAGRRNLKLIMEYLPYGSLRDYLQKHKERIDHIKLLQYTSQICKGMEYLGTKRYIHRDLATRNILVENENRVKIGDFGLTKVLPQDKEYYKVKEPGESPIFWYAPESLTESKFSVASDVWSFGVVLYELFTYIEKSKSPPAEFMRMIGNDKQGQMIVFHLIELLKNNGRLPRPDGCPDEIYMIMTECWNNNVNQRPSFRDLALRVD

SMILES	EC50 [1, 5] [nM]	EC50 [2, 6] [nM]	EC50 [3, 7] [nM]	EC50 [4, 8] [nM]	EC50 [1, 9] [nM]	EC50 [2, 10] [nM]	EC50 [3, 11] [nM]	EC50 [4, 12] [nM]	further results
O=C(c1ccccc1)N1[C@@H]2CC[C@@H]1CN(c1ncnc3[nH]ccc13)C2 [Example 240, Phenyl-[3-(7H-pyrrolo[2,3-d]pyrimidin-4-yl)-3,8-diaza-bicyclo[3.2.1]oct-8-yl]-methanone]	> 500	100 to 500	< 100	< 100					
N#CCc1ccc(C(=O)N2CCN(c3ncnc4[nH]ccc34)CC23CC3)cc1 [Example 18, {4-[7-(7H-Pyrrolo[2,3-d]pyrimidin-4-yl)-4,7-diazaspiro[2.5]octane-4-carbonyl]-phenyl}acetonitrile]					100 to 500	100 to 500	< 100	< 100	
Cc1ccc(C(=O)N2C3CCC2CN(c2ncnc4[nH]ccc24)C3)cc1S(N)(=O)=O [Example 138, 2-Methyl-5-[3-(7H-pyrrolo[2,3-d]pyrimidin-4-yl)-3,8-diaza-bicyclo[3.2.1]octane-8-carbonyl]-benzenesulfonamide]					> 500	< 100	< 100	< 100	
O=C(Cc1cccnc1)N1CCN(c2ncnc3[nH]ccc23)CC12CC2 [Example 4, 2-Pyridin-3-yl-1-[7-(7H-pyrrolo[2,3-d]pyrimidin-4-yl)-4,7-diazaspiro[2.5]oct-4-yl]ethanone]					> 500	100 to 500	< 100	100 to 500	
O=C(c1cc2ccccc2[nH]1)N1CCN(c2ncnc3[nH]ccc23)CC12CC2 [Example 55, (1H-Indol-2-yl)-[7-(7H-pyrrolo[2,3-d]pyrimidin-4-yl)-4,7-diazaspiro[2.5]oct-4-yl]methanone]					100 to 500	< 100	< 100	< 100	
O=C(Cc1cccnc1)N1[C@@H]2CC[C@@H]1CN(c1ncnc3[nH]ccc13)C2 [Example 172, 2-Pyridin-3-yl-1-[3-(7H-pyrrolo[2,3-d]pyrimidin-4-yl)-3,8-diaza-bicyclo[3.2.1]oct-8-yl]-ethanone]					> 500	> 500	100 to 500	> 500	
N#CCC(=O)N1CCN(c2ccnc3[nH]ccc23)CC12CC2 [Example 220, 3-Oxo-3-[7-(1H-pyrrolo[2,3-b]pyridin-4-yl)-4,7-diaza-spiro[2.5]oct-4-yl]-propionitrile]	> 500	100 to 500	100 to 500	100 to 500					
O=C(c1nsc2cc(Br)ccc12)N1[C@@H]2CC[C@@H]1CN(c1ncnc3[nH]ccc13)C2 [Example 360, (6-Bromo-benzo[d]isothiazol-3-yl)-[3-(7H-pyrrolo[2,3-d]pyrimidin-4-yl)-3,8-diaza-bicyclo[3.2.1]oct-8-yl]-methanone]	> 500	100 to 500	100 to 500	100 to 500					
CS(=O)(=O)c1ccc(CC(=O)N2CCN(c3ncnc4[nH]ccc34)CC23CC3)cc1 [Example 107, 2-(4-Methanesulfonyl-phenyl)-1-[7-(7H-pyrrolo[2,3-d]pyrimidin-4-yl)-4,7-diaza-spiro[2.5]oct-4-yl]-ethanone]					> 500	< 100	< 100	< 100	
O=C(c1ccc(S(=O)(=O)NCc2cccs2)cc1)N1CCN(c2ncnc3[nH]ccc23)CC12CC2 [Example 204, 4-[7-(7H-Pyrrolo[2,3-d]pyrimidin-4-yl)-4,7-diaza-spiro[2.5]octane-4-carbonyl]-N-thiophen-2-ylmethyl-benzenesulfonamide]					100 to 500	< 100	< 100	< 100	
N#CCc1ccc(CC(=O)N2CCN(c3nc(N)nc4[nH]ccc34)CC23CC3)cc1 [Example 307, (4-{2-[7-(2-Amino-7H-pyrrolo[2,3-d]pyrimidin-4-yl)-4,7-diaza-spiro[2.5]oct-4-yl]-2-oxo-ethyl}-phenyl)-acetonitrile]	> 500	100 to 500	100 to 500	100 to 500					
COCC(=S)N1CCN(c2ncnc3[nH]ccc23)CC12CC2 [Example 447, 2-Methoxy-1-[7-(7H-pyrrolo[2,3-d]pyrimidin-4-yl)-4,7-diaza-spiro[2.5]oct-4-yl]-ethanethione]									EC50 ([1]; HTRF assay, read-out: TYK2 kinase inhibitory activity (EC50)): 100 to 500 nM; EC50 ([2]; HTRF assay, read-out: JAK3 kinase inhibitory activity (EC50)): 100 to 500 nM; EC50 ([3]; HTRF assay, read-out: JAK2 kinase inhibitory activity (EC50)): < 100 nM; EC50 ([4]; HTRF assay, read-out: JAK1 kinase inhibitory activity (EC50)): < 100 nM
O=C(CCC(F)(F)F)N1CCN(c2ncnc3[nH]ccc23)CC12CC2 [Example 28, 4,4,4-Trifluoro-1-[7-(7H-pyrrolo[2,3-d]pyrimidin-4-yl)-4,7-diazaspiro[2.5]oct-4-yl]butan-1-one]					100 to 500	< 100	< 100	< 100	
